This experiment has as its target T1, human GSK-3β (Hs GSK-3β) (Homo sapiens, UniProt P49841).
T1 construct: gene GSK3B
Description: Kinase-Glo Plus luminescent kinase assay with recombinant enzyme; Michaelis-Menten and Lineweaver-Burk kinetics. Type of experiment: biochemical.

In general, IC50 refers to the midpoint of a concentration-inhibition curve.

T1 sequence (P49841 whole entry): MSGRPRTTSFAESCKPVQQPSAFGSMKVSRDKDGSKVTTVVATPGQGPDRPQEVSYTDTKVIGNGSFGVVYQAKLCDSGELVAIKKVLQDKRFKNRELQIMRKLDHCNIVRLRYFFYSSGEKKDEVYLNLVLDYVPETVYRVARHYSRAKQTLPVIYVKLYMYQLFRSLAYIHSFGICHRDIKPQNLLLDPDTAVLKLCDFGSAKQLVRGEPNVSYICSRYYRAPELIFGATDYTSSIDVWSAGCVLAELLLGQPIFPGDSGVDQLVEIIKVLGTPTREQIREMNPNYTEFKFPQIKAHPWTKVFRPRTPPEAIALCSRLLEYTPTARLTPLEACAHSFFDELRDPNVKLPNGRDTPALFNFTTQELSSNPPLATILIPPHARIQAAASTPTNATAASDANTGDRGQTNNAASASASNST

On to `CCCCOC(=O)c1ccccc1C(=O)OCCCC` [DBP, dibutyl phthalate], for which the IC50 came out at 2000 nM.
